Test results reported in US20040171566A1, “Antisense modulation of p38 mitogen activated protein kinase expression” (priority 1999, published 2004).
In the oligonucleotide strings, read from the 5' end, every base follows the letter of its sugar. An asterisk marks phosphorothioate; unmarked linkages are phosphodiester. Other units and linkages are bracketed, terminal groups are in braces. A string of capitals states the bases alone. e = 2'-O-(2-methoxyethyl) (MOE); [5mC] = 5-methylcytosine; d = 2'-deoxy (DNA)

Key:
[1] = tested on: human p38β mRNA; assay: Human p38β mRNA expression in T-24 cells; conditions: for % P38β mRNA EXPRESSION: initial screen of human p38α oligonucleotides
[2] = tested on: rat p38α mRNA; assay: Rat p38α mRNA levels in NR-8383 cells, quantitative real-time PCR; assay type: cell-based; conditions: 300 nM oligonucleotide with FuGENE 6, 24 hours, mRNA by quantitative real-time PCR, average of two experiments
[3] = tested on: mouse p38α mRNA; assay: Mouse p38α mRNA levels in bEND.3 cells, quantitative real-time PCR; assay type: cell-based; set-up: % Inhib. mouse p38α: concentration or dose not given beside the values; conditions: bEND.3 cells, mRNA by quantitative real-time PCR, average of two experiments
How it was run: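 Mouse bEND.3 cells, antisense oligonucleotide-treated; p38α mRNA measured by one-step real-time RT-PCR (RT 30 min at 48 °C, then 40 cycles) with a FAM/TAMRA probe. Levels normalized to GAPDH or RiboGreen total RNA, and percent inhibition derived from standard curves of untreated-control mRNA.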

[4] = tested on: human p38α mRNA; assay: Human p38α mRNA expression in T-24 cells; conditions: for % P38α mRNA EXPRESSION: initial screen of human p38α oligonucleotides
[5] = tested on: mouse p38β mRNA; assay: Inhibition of mouse p38β mRNA expression in bEND.3 cells, Northern blot; assay type: cell-based; conditions: mouse p38β antisense oligonucleotides, screened as in Example 4
Description: bEND.3, a mouse endothelial cell line (gift of Dr. Werner Risau; see Montesano et al., Cell, 1990, 62, 435, and Stepkowski et al., J. Immunol., 1994, 153, 5336) were grown in high-glucose DMEM (Life Technologies, Gaithersburg, Md.) medium containing 10% fetal bovine serum (FBS) and 1% Penicillin/Streptomycinin. Cells were plated at approximately 2×10^5 cells per 100 mm dish. Within 48 hours of plating, the cells were washed with phosphate-buffered saline (Life Technologies). Then, Opti-MEM7 medium containing 3 μg/mL LIPOFECTIN^7 and an appropriate amount of oligonucleotide were added to the cells. As a control, cells were treated with LIPOFECTIN^7 without oligonucleotide under the same conditions and for the same times as the oligonucleotide-treated samples.
After 4 hours at 37° C., the medium was replaced with high glucose DMEM medium containing 10% FBS and 1% Penicillin/Streptomycinin. The cells were typically allowed to recover overnight (about 18 to 24 hours) before RNA and/or protein assays were performed as described in Example 2. The p38α, p38β and G3PDH probes used were identical to those described in Example 2.
Rat p38α antisense oligonucleotides were screened in bEND.3 cells for inhibition of p38α and p38β mRNA expression. The concentration of oligonucleotide used was 100 nM. Oligonucleotides 21844 (SEQ ID NO. 47), 21845 (SEQ ID NO. 48), 21872 (SEQ ID NO. 51), 21873 (SEQ ID NO. 52), 21875 (SEQ ID NO. 54), and 21876 (SEQ ID NO.
Mouse p38β antisense sequences were screened in bEND.3 cells as described in Example 4.

[6] = tested on: human p38β mRNA; assay: Inhibition of human p38β mRNA expression in HUVEC cells, Northern blot; assay type: cell-based
Description: The human Jurkat T-cell line (American Type Culture Collection, Manassas, Va.) was maintained in RPMI 1640 growth media supplemented with 10% fetal bovine serum (FBS; Hyclone, Logan, Utah). HUVEC cells (Clonetics, San Diego, Calif.) were cultivated in endothelial basal media supplemented with 10% FBS (Hyclone, Logan, Utah).
HUVEC cells were allowed to reach 75% confluency prior to use. The cells were washed twice with warm (37° C.) OPTI-MEM™ (Life Technologies). The cells were incubated in the presence of the appropriate culture medium, without the growth factors added, and the oligonucleotide formulated in LIPOFECTIN7 (Life Technologies), a 1:1 (w/w) liposome formulation of the cationic lipid N-[1-(2,3-dioleyloxy)propyl]-n,n,n-trimethylammonium chloride (DOTMA), and dioleoyl phosphotidylethanolamine (DOPE) in membrane filtered water. HUVEC cells were treated with 100 nM oligonucleotide in 10 μg/ml LIPOFECTIN7. Treatment was for four hours.
Total mRNA was isolated using the RNEASY7 Mini Kit (Qiagen, Valencia, Calif.; similar kits from other manufacturers may also be used), separated on a 1% agarose gel, transferred to HYBOND™-N+ membrane (Amersham Pharmacia Biotech, Piscataway, N.J.), a positively charged nylon membrane, and probed. p38 MAPK probes were made using the Prime-A-Gene7 kit (Promega Corporation, Madison, Wis.), a random primer labeling kit, using mouse p38α or p38β cDNA as a template. A glyceraldehyde 3-phosphate dehydrogenase (G3PDH) probe was purchased from Clontech (Palo Alto, Calif.), Catalog Number 9805-1. The fragments were purified from low-melting temperature agarose, as described in Maniatis, T., et al., Molecular Cloning: A Laboratory Manual, 1989. The G3PDH probe was labeled with REDIVUE™ ^32P-dCTP (Amersham Pharmacia Biotech, Piscataway, N.J.) and Strip-EZ labelling kit (Ambion, Austin, Tex.). mRNA was quantitated by a PhosphoImager (Molecular Dynamics, Sunnyvale, Calif.).
Every oligonucleotide tested gave at least 50% inhibition.
Oligonucleotides 17893 (SEQ ID NO. 27), 17899 (SEQ ID NO:33), 17904 (SEQ ID NO. 38), and 17907 (SEQ ID NO. 41) were chosen for dose response studies. HUVEC cells were cultured and treated as described in Example 2 except that the oligonucleotide concentration was varied as shown in Table 6. The Lipofectin7/Oligo ratio was maintained at 3 μg Lipofectin7/100 nM oligo, per ml. mRNA was measured by Northern blot as described in Example 2.

[7] = initial screen of human p38β oligonucleotides
[8] = dose 50 nM, relative to control oligonucleotide = 100%
[9] = dose 100 nM, relative to control oligonucleotide = 100%
[10] = dose 200 nM, relative to control oligonucleotide = 100%
[11] = 100 nM oligonucleotide in 10 μg/ml LIPOFECTIN, four hours, Northern blot

| Substance | % P38β mRNA EXPRESSION [1] | % P38α mRNA EXPRESSION [4] | % p38β mRNA Expression [1, 7] | % p38α mRNA EXPRESSION [4, 7] | % p38β mRNA Expression [1, 8] | % p38β mRNA Expression [1, 9] | % p38β mRNA Expression [1, 10] | also measured |
| --- | --- | --- | --- | --- | --- | --- | --- | --- |
| TCCAACAGACCAATCACATT (phosphorothioate gapmer, further chemistry not given here) [ISIS 100864] | 70% | 66% | – | – | – | – | – | % Inhib. rat p38α [2]: 57%; % Inhib. mouse p38α [3]: 83% |
| AATGATGGACTGAAATGGTC (eA*eA*eT*eG*eA*dT*dG*dG*dA*d[5mC]*dT*dG*dA*dA*dA*eT*eG*eG*eT*e[5mC]; antisense) [ISIS 100863] | 67% | 49% | – | – | – | – | – | – |
| AGTCAAAGACTGAATATAGT (eA*eG*eT*e[5mC]*eA*dA*dA*dG*dA*d[5mC]*dT*dG*dA*dA*dT*eA*eT*eA*eG*eT; antisense) [ISIS 100871] | 96% | 57% | – | – | – | – | – | – |
| CAGTTGAGCATGATCTCAGG (antisense e[5mC]eAeGeTeT*dG*dA*dG*d[5mC]*dA*dT*dG*dA*dT*d[5mC]*eTe[5mC]eAeGeG) [ISIS 107876] | – | – | 127% | 137% | – | – | – | – |
| CACGTAGCCTGTCATTTCAT (chimeric deoxy gapped, phosphorothioate, further chemistry not given here) [ISIS 100868] | 60% | 47% | – | – | – | – | – | – |
| ACGTTGCTGGGCTTCAGGTC (antisense eAe[5mC]eGeTeT*dG*d[5mC]*dT*dG*dG*dG*d[5mC]*dT*dT*d[5mC]*eAeGeGeTe[5mC]) [ISIS 107874] | – | – | 61% | 100% | 75% | 34% | 23% | – |
| CTGAGACATTTTCCAGCGGC (phosphorothioate gapmer, further chemistry not given here) [ISIS 100860] | 71% | 73% | – | – | – | – | – | – |
| CoCoCoToGsCsAsGsCsCsGsCsTsGsCsGoGoCoAoC (antisense e[5mC]e[5mC]e[5mC]eTeG*d[5mC]*dA*dG*d[5mC]*d[5mC]*dG*d[5mC]*dT*dG*d[5mC]*eGeGe[5mC]eAe[5mC]) [ISIS 100802] | – | – | 47% | 78% | – | – | – | % p38β mRNA Inhibition [5]: 35% |
| AGCTTCTTCACTGCCACACG (phosphorothioate gapmer, further chemistry not given here) [ISIS 100862] | 45% | 56% | – | – | – | – | – | – |
| TTCTCTTATCTGAGTCCAAT (chimeric deoxy gapped, phosphorothioate, further chemistry not given here) [ISIS 100872] | 77% | 37% | – | – | – | – | – | % p38α mRNA EXPRESSION ([4]; dose 50 nM): 45%; % p38α mRNA EXPRESSION ([4]; dose 100 nM): 18%; % p38α mRNA EXPRESSION ([4]; dose 200 nM): 17% |
| TCAAAGGACTGATCATAAGG (eT*e[5mC]*eA*eA*eA*dG*dG*dA*d[5mC]*dT*dG*dA*dT*d[5mC]*dA*eT*eA*eA*eG*eG; antisense) [ISIS 100874] | 76% | 42% | – | – | – | – | – | % p38α mRNA EXPRESSION ([4]; dose 50 nM): 47%; % p38α mRNA EXPRESSION ([4]; dose 100 nM): 27%; % p38α mRNA EXPRESSION ([4]; dose 200 nM): 13% |
| GTACGTTCTGCGCGCGTGGA (antisense eGeTeAe[5mC]eG*dT*dT*d[5mC]*dT*dG*d[5mC]*dG*d[5mC]*dG*d[5mC]*eGeTeGeGeA) [ISIS 107871] | – | – | 60% | 111% | 41% | 42% | 10% | – |
| TGTAAGCTTCTGACATTTCA (phosphorothioate gapmer, further chemistry not given here) [ISIS 100865] | 63% | 64% | – | – | – | – | – | – |
| AGGTGCTCAGGACTCCATCT (chimeric deoxy gapped, phosphorothioate, further chemistry not given here) [ISIS 100876] | 93% | 77% | – | – | – | – | – | – |
| ATCCTGAGCTCACAGTCCTC (chimeric, phosphorothioate, further chemistry not given here) [ISIS 17899] | – | – | 56% | 117% | 89% | 36% | 15% | % mRNA EXPRESSION [6, 11]: 5%; % mRNA Inhibition [6, 11]: 95%; % mRNA EXPRESSION ([6]; dose 10 nM): 37%; % mRNA Inhibition ([6]; dose 10 nM): 63%; % mRNA EXPRESSION ([6]; dose 25 nM): 23%; % mRNA Inhibition ([6]; dose 25 nM): 77%; % mRNA EXPRESSION ([6]; dose 50 nM): 18%; % mRNA Inhibition ([6]; dose 50 nM): 82%; % mRNA EXPRESSION ([6]; dose 100 nM): 21%; % mRNA Inhibition ([6]; dose 100 nM): 79% |
| TGCCCTGGAGCAGCTCAGCC (antisense eTeGe[5mC]e[5mC]e[5mC]*dT*dG*dG*dA*dG*d[5mC]*dA*dG*d[5mC]*dT*e[5mC]eAeGe[5mC]e[5mC]) [ISIS 107878] | – | – | 54% | 112% | 70% | 43% | 27% | – |
| CAGGAATTGAACGTGCTCGT (antisense e[5mC]eAeGeGeA*dA*dT*dT*dG*dA*dA*d[5mC]*dG*dT*dG*e[5mC]eTe[5mC]eGeT) [ISIS 107873] | – | – | 58% | 120% | 69% | 41% | 23% | – |
| ATGGACGTGGCCGGCGTGAA (antisense eAeTeGeGeA*d[5mC]*dG*dT*dG*dG*d[5mC]*d[5mC]*dG*dG*d[5mC]*eGeTeGeAeA) [ISIS 107872] | – | – | 57% | 123% | 71% | 13% | 22% | – |
| ACGCTCGGGCACCTCCCAGA (phosphorothioate gapmer, further chemistry not given here) [ISIS 100861] | 47% | 60% | – | – | – | – | – | – |
| CATCCCACTGACCAAATATC (chimeric deoxy gapped, phosphorothioate, further chemistry not given here) [ISIS 100869] | 100% | 61% | – | – | – | – | – | – |
